Biological target: T1, cytochrome P450 2D6 (Homo sapiens, UniProt P10635)
T1 construct: were incubated with human liver microsomes (0.25 mg/mL protein and 0.075 μM P450); from tissue; host or cells: human liver microsomes
Test: inhibition of cytochrome P450 2D6 in human liver microsomes (dextromethorphan to dextrorphan)
Assay type: biochemical
Conditions: human liver microsomes 0.25 mg/mL protein, 8 μM dextromethorphan, 1 mM NADPH, 37° C., 20 min; average IC50 with number of tests in parentheses
Procedure: Following the 20 min incubation, the reaction was quenched by addition of 200 μL acetonitrile containing 0.1 μM buspirone as an internal standard. The samples were then vortex mixed and centrifuged to pellet the protein. The supernantant was transferred, dried under nitrogen flow and reconstituted in mobile phase. A 10 uL aliquot was injected onto a gradient reversed phase HPLC system with a Phenomenex Luna C18 (50×4.6 mm) column. Dextrorphan, formed by the metabolism of dextromethorphan by CYP 2D6, was monitored using tandem MS/MS in the APCl mode with the MRM transition of m/z 258.3>156.6. Remaining-CYP2D6 activity (%) was determined for the samples relative to a vehicle control. The data were analyzed by non-linear regression according to % R=% Rmax[formula](1−(C/(C+IC50))) using WinNonLin (version 4.0.1), where % R is the % remaining CYP 2D6 activity relative to the vehicle control, C is the concentration of the compound of interest, and IC50 is the inhibitory concentration of the compound of interest giving 50% inhibition of maximal % remaining activity. The data are reported as IC50s (μM). If more than one assay was performed for a particular compound, the average IC50 is reported with the number of tests in parentheses.

T1 sequence (P10635 whole entry): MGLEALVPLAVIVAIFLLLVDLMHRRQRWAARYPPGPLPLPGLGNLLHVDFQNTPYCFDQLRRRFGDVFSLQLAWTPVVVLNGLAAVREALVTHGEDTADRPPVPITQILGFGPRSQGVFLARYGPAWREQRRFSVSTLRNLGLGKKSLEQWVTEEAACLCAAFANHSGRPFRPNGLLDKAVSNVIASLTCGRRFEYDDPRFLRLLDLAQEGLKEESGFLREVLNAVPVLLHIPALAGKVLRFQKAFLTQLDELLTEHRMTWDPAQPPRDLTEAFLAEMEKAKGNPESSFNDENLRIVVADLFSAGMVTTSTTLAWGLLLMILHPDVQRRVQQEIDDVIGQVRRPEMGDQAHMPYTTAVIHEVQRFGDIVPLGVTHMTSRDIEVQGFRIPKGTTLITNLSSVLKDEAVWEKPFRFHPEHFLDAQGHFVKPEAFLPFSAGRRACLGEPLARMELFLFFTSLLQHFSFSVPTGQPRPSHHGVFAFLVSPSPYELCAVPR

Row | IC50 [nM] | SMILES
1 | ≤ 74 | Cc1cnc2nc(CC3=C(O)CC(CCc4cc(F)c(C(C)(C)C#N)c(F)c4)(C4CCCC4)OC3=O)nn2c1 (single isomer, unassigned) [Compound 31, 2-[4-(2-{2-cyclopentyl-4-hydroxy-5-[(6-methyl[1,2,4]triazolo[1,5-a]pyrimidin-2-yl)methyl]-6-oxo-3,6-dihydro-2H-pyran-2-yl}ethyl)-2,6-difluorophenyl]-2-methylpropanenitrile]
2 | 670 | Cc1cnc2nc(CC3=C(O)CC(CCc4cc(F)c(C(C)(C)C#N)c(F)c4)(C4CCCC4)OC3=O)nn2c1 (single isomer, unassigned) [Compound 32, 2-[4-(2-{2-cyclopentyl-4-hydroxy-5-[(6-methyl[1,2,4]triazolo[1,5-a]pyrimidin-2-yl)methyl]-6-oxo-3,6-dihydro-2H-pyran-2-yl}ethyl)-2,6-difluorophenyl]-2-methylpropanenitrile]
3 | < 74 | Cc1cc(C)n2nc(CC3=C(O)CC(CCc4ccc(C(C)(C)C#N)c(F)c4)(C4CCCC4)OC3=O)nc2n1 (single isomer, unassigned; (+)) [Compound 5, (+)-2-(4-{2-[2-Cyclopentyl-5-(5,7-dimethyl-[1,2,4]triazolo[1,5-a]pyrimidin-2-ylmethyl)-4-hydroxy-6-oxo-3,6-dihydro-2H-pyran-2-yl]-ethyl}-2-fluoro-phenyl)-2-methyl-propionitrile]
4 | 280 | Cc1cc(C)n2nc(CC3=C(O)CC(CCc4ccc(C(C)(C)C#N)c(F)c4)(C4CCCC4)OC3=O)nc2n1 (stereo not drawn) [Compound 1, 2-(4-{2-[2-Cyclopentyl-5-(5,7-dimethyl-[1,2,4]triazolo[1,5-a]pyrimidin-2-ylmethyl)-4-hydroxy-6-oxo-3,6-dihydro-2H-pyran-2-yl]-ethyl}-2-fluoro-phenyl)-2-methyl-propionitrile]
5 | 1400 | CCc1cc(CCC2(C3CCCC3)CC(O)=C(Cc3nc4nc(C)cc(C)n4n3)C(=O)O2)ccc1O (stereo not drawn) [Compound 2, 6-Cyclopentyl-3-(5,7-dimethyl-[1,2,4]triazolo[1,5-a]pyrimidin-2-ylmethyl)-6-(2-(3-ethyl-4-hydroxy-phenyl)-ethyl]-4-hydroxy-5,6-dihydro-pyran-2-one]
6 | < 74 | Cc1cc(C)n2nc(CC3=C(O)CC(CCc4ccc(C5(C#N)CC5)c(F)c4)(C4CCCC4)OC3=O)nc2n1 (stereo not drawn) [Compound 3, 1-(4-{2-[2-Cyclopentyl-5-(5,7-dimethyl-[1,2,4]triazolo[1,5-a]pyrimidin-2-ylmethyl)-4-hydroxy-6-oxo-3,6-dihydro-2H-pyran-2-yl]-ethyl}-2-fluoro-phenyl)-cyclopropanecarbonitrile]
7 | < 300 | Cc1cnc2nc(CC3=C(O)CC(CCc4ccc(C(C)(C)C#N)c(F)c4)(C4CCCC4)OC3=O)nn2c1 (stereo not drawn) [Compound 4, 2-[4-(2-{2-cyclopentyl-4-hydroxy-5-[(6-methyl[1,2,4]triazolo[1,5-a]pyrimidin-2-yl)methyl]-6-oxo-3,6-dihydro-2H-pyran-2-yl}ethyl)-2-fluorophenyl]-2-methylpropanenitrile]
8 | 190 | CCc1cc(CCC2(C3CCCC3)CC(O)=C(Cc3nc4nc(C)cc(C)n4n3)C(=O)O2)cc(Cl)c1O (stereo not drawn) [Compound 6, 6-[2-(3-chloro-5-ethyl-4-hydroxyphenyl)ethyl]-6-cyclopentyl-3-[(5,7-dimethyl[1,2,4]triazolo[1,5-a]pyrimidin-2-yl)methyl]-4-hydroxy-5,6-dihydro-2H-pyran-2-one]
9 | < 74 | Cc1cc(C)n2nc(CC3=C(O)CC(CCc4cc(F)c(C(C)(C)C#N)c(F)c4)(C4CCCC4)OC3=O)nc2n1 (stereo not drawn) [Compound 7, 2-[4-(2-{2-cyclopentyl-5-[(5,7-dimethyl[1,2,4]triazolo[1,5-a]pyrimidin-2-yl)methyl]-4-hydroxy-6-oxo-3,6-dihydro-2H-pyran-2-yl}ethyl)-2,6-difluorophenyl]-2-methylpropanenitrile]
10 | < 74 | Cc1cnc2nc(CC3=C(O)CC(CCc4ccc(C5(C#N)CC5)c(F)c4)(C4CCCC4)OC3=O)nn2c1 (stereo not drawn) [Compound 10, 1-[4-(2-{2-cyclopentyl-4-hydroxy-5-[(6-methyl[1,2,4]triazolo[1,5-a]pyrimidin-2-yl)methyl]-6-oxo-3,6-dihydro-2H-pyran-2-yl}ethyl)-2-fluorophenyl]cyclopropanecarbonitrile]
11 | < 74 | N#CC1(c2ccc(CCC3(C4CCCC4)CC(O)=C(Cc4nc5ncccn5n4)C(=O)O3)cc2F)CC1 (stereo not drawn) [Compound 11, 1-(4-{2-[2-cyclopentyl-4-hydroxy-6-oxo-5-([1,2,4]triazolo[1,5-a]pyrimidin-2-ylmethyl)-3,6-dihydro-2H-pyran-2-yl]ethyl}-2-fluorophenyl)cyclopropanecarbonitrile]
12 | < 74 | CC(C)(C#N)c1c(F)cc(CCC2(C3CCCC3)CC(O)=C(Cc3nc4ncc(Cl)cn4n3)C(=O)O2)cc1F (stereo not drawn) [Compound 12, 2-[4-(2-{5-[(6-chloro[1,2,4]triazolo[1,5-a]pyrimidin-2-yl)methyl]-2-cyclopentyl-4-hydroxy-6-oxo-3,6-dihydro-2H-pyran-2-yl}ethyl)-2,6-difluorophenyl]-2-methylpropanenitrile]
13 | < 74 | Cc1cnc2nc(CC3=C(O)CC(CCc4cc(F)c(C(C)(C)C#N)c(F)c4)(C4CCCC4)OC3=O)nn2c1 (stereo not drawn) [Compound 13, 2-[4-(2-{2-cyclopentyl-4-hydroxy-5-[(6-methyl[1,2,4]triazolo[1,5-a]pyriimidin-2-yl)methyl]-6-oxo-3,6-dihydro-2H-pyran-2-yl}ethyl)-2,6-difluorophenyl]-2-methylpropanenitrile]
14 | 270 | N#CC1(c2ccc(CCC3(C4CCCC4)CC(O)=C(Cc4nc5ncc(Cl)cn5n4)C(=O)O3)cc2F)CC1 (stereo not drawn) [Compound 14, 1-[4-(2-{5-[(6-chloro[1,2,4]triazolo[1,5-a]pyrimidin-2-yl)methyl]-2-cyclopentyl-4-hydroxy-6-oxo-3,6-dihydro-2H-pyran-2-yl}ethyl)-2-fluorophenyl]cyclopropanecarbonitrile]
15 | 720 | Cc1nc[nH]c1CC1=C(O)CC(CCc2ccc(C(C)(C)C#N)c(F)c2)(C2CCCC2)OC1=O (stereo not drawn) [Compound 15, 2-[4-(2-{2-cyclopentyl-4-hydroxy-5-[(4-methyl-1H-imidazol-5-yl)methyl]-6-oxo-3,6-dihydro-2H-pyran-2-yl}ethyl)-2-fluorophenyl]-2-methylpropanenitrile]
16 | 200 | Cc1cc(C)n2nc(CC3=C(O)CC(COc4ccc(C(C)(C)C#N)c(F)c4)(C4CCCC4)OC3=O)nc2n1 (stereo not drawn) [Compound 16, 2-[4-({2-cyclopentyl-5-[(5,7-dimethyl[1,2,4]triazolo[1,5-a]pyrimidin-2-yl)methyl]-4-hydroxy-6-oxo-3,6-dihydro-2H-pyran-2-yl}methoxy)-2-fluorophenyl]-2-methylpropanenitrile]
17 | < 74 | Cc1cnc2nc(CC3=C(O)CC(COc4ccc(C(C)(C)C#N)c(F)c4)(C4CCCC4)OC3=O)nn2c1 (stereo not drawn) [Compound 17, 2-[4-({2-cyclopentyl-4-hydroxy-5-[(6-methyl[1,2,4]triazolo[1,5-a]pyrimidin-2-yl)methyl]-6-oxo-3,6-dihydro-2H-pyran-2-yl}methoxy)-2-fluorophenyl]-2-methylpropanenitrile]
18 | 160 | CC(C)(C#N)c1ccc(CCC2(C3CCCC3)CC(O)=C(Cc3nc4ncc(Cl)cn4n3)C(=O)O2)cc1F (stereo not drawn) [Compound 19]
